Results from the NIST ThermoML archive (doi:10.1021/acs.jced.5b00773).
Numbers after ± are expanded uncertainties. Values belong to the compound of their own block, whether it stands above or below them.

Conditions: Liquid, Closed cell (Static) method

vapor or sublimation pressure (473.46 K): 1500 ± 10 kPa
SMILES: CCC(C)O (stereo not drawn) [butan-2-ol]

vapor or sublimation pressure (462.75 K): 1500 ± 10 kPa
SMILES: CCOC(C)=O [ethyl acetate]

vapor or sublimation pressure (436.08 K): 1500 ± 10 kPa
SMILES: COC(C)=O [methyl ethanoate]
